This experiment relates to MDA-MB-231 tumors. In words: TUNEL assay for tumor apoptosis. The following applies: tumors harvested 48 h after intratumoral injection, N=3 mice per condition. The format is in vivo, nude mice. The protocol: Furthermore, we evaluated the therapeutic efficacy of Fe3O4@PLGA-DOX to the tumor. Tumor tissues of the orthotopic breast cancer mice were harvested after injection of Fe3O4@PLGA-DOX for 48 h and then sectioned for TUNEL apoptosis assay. […] Meanwhile, the fluorescence signals can also be observed in the tissue section.
MDA-MB-231 tumors on nude mice were harvested and encapsulated in Tissue-Tek® O.C.T. and then frozen. Tumor tissues embedded in were sectioned by cryostat with a thickness of 2 μm for each slice. tissue slices were treated with Click-iT™ Plus TUNEL Assay (Alexa Fluor™ 488 dye) kit for apoptosis detection. Fluorescence images of tumor tissues were captured by fluorescent microscopy. Alexa Fluor™ 488 dye was excited by 488 nm laser and the emission collecting window was 500-540 nm. The signal of DOX were excited by 488 nm laser and emission was collected at 580-630 nm.

The values below come from patent US20210315476A1, “Depth-independent method for in-vivo drug release monitoring and quantification based on magnetic particle imaging” (The Board of Trustees of the Leland Stanford Junior …, priority 2018, published 2021).

For `COc1cccc2c1C(=O)c1c(O)c3c(c(O)c1C2=O)C[C@@](O)(C(=O)CO)C[C@@H]3O[C@H]1C[C@H](N)[C@H](O)[C@H](C)O1` [DOX, doxorubicin], the “apoptosis in tumor section (TUNEL)” value was “exhibited apoptosis”.
